Here are results for 36 compounds from patent US11591336B2 (Relay Therapeutics, Inc., priority 2017, dated 2023).

Where a name gives a salt, the structure may show the parent alone.

Chain of SHP2 (Q06124 whole entry): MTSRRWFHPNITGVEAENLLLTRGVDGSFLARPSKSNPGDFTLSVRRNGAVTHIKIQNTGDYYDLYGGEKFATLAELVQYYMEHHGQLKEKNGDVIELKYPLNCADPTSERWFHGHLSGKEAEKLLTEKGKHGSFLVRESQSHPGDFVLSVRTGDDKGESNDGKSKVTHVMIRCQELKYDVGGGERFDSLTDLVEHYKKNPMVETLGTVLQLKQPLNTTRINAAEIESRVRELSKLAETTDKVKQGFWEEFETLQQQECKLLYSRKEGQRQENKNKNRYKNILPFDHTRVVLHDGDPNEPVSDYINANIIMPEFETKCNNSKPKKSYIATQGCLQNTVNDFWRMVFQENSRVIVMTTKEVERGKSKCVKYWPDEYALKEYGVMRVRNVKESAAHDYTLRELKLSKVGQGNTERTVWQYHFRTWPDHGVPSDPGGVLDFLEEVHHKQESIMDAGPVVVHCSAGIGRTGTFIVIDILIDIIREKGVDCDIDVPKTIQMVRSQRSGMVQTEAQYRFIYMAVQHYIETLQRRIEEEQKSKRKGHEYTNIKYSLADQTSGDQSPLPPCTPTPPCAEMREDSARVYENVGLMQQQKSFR

This assay has as its target SHP2 (Homo sapiens (Human), UniProt Q06124). The assay can be described thus: SHP2 Allosteric Inhibition Assay (DiFMUP prompt fluorescence). Particulars: 0.25 nM SHP2 activated with 0.5 μM peptide IRS1_pY1172(dPEG8)pY1222; substrate DiFMUP 100 μM; 25° C. In kind it is biochemical.
For `COc1nccc(Sc2n[nH]c3nc(N4CCC(C)(N)CC4)cnc23)c1Cl` [Compound 479, 1-(3-((3-chloro-2-methoxypyridin-4-yl)thio)-1H-pyrazolo[3,4-b]pyrazin-6-yl)-4-methylpiperidin-4-amine], the IC50 was less than 1 µM.

Compound `CC1(N)CCN(c2cnc3c(Sc4cccnc4C(=O)O)n[nH]c3n2)CC1` [Compound 482] registered an IC50 of less than 1 µM.

Turning to `N[C@@H]1COCC12CCN(c1cnc3c(Sc4cccnc4C(F)(F)F)n[nH]c3n1)CC2` [Compound 483, (S)-8-(3-((2-(trifluoromethyl)pyridin-3-yl)thio)-1H-pyrazolo[3,4-b]pyrazin-6-yl)-2-oxa-8-azaspiro[4.5]decan-4-amine], the IC50 was less than 1 µM.

In turn, `Cn1ccc(Sc2n[nH]c3nc(N4CCC(C)(N)CC4)cnc23)c(Cl)c1=O` [Compound 484, 4-((6-(4-amino-4-methylpiperidin-1-yl)-1H-pyrazolo[3,4-b]pyrazin-3-yl)thio)-3-chloro-1-methylpyridin-2(1H)-one] displayed a half-inhibitory concentration (IC50) of less than 1 µM.

For `NCC1(F)CCN(c2cnc3c(Sc4ccccc4Cl)n[nH]c3n2)CC1` [Compound 485, (1-(3-((2-chlorophenyl)thio)-1H-pyrazolo[3,4-b]pyrazin-6-yl)-4-fluoropiperidin-4-yl)methanamine], the IC50 is less than 1 µM.

In turn, `CC1(N)CCN(c2cnc3c(Sc4ccncc4)n[nH]c3n2)CC1` [Compound 486, 4-methyl-1-(3-(pyridin-4-ylthio)-1H-pyrazolo[3,4-b]pyrazin-6-yl)piperidin-4-amine] displayed a 50% inhibitory concentration (IC50) of less than 1 µM.

On to `CC(=O)N1CCCC(Sc2n[nH]c3nc(N4CCC(C)(N)CC4)cnc23)C1` (stereo not drawn) [Compound 488, 1-(3-((6-(4-amino-4-methylpiperidin-1-yl)-1H-pyrazolo[3,4-b]pyrazin-3-yl)thio)piperidin-1-yl)ethan-1-one], for which the IC50 was not below 10 µM.

Turning to `CC1(N)CCN(c2cnc3c(Sc4ccnc(N)c4F)n[nH]c3n2)CC1` [Compound 489, 4-((6-(4-amino-4-methylpiperidin-1-yl)-1H-pyrazolo[3,4-b]pyrazin-3-yl)thio)-3-fluoropyridin-2-amine], the IC50 was less than 1 µM.

In turn, `CN(c1ccnc(N)c1)c1n[nH]c2nc(N3CCC(C)(N)CC3)cnc12` [Compound 491, N4-[6-(4-amino-4-methyl-1-piperidyl)-1H-pyrazolo[3,4-b]pyrazin-3-yl]-N4-methyl-pyridine-2,4-diamine] showed an IC50 of 1 to 10 µM.

The compound `CC1(N)CCN(c2cnc3c(SC4CCCNC4)n[nH]c3n2)CC1` (stereo not drawn) [Compound 492, 4-methyl-1-(3-(piperidin-3-ylthio)-1H-pyrazolo[3,4-b]pyrazin-6-yl)piperidin-4-amine] registered an IC50 not below 10 µM.

`CC1(N)CCN(c2cnc3c(Sc4ncnc5ccccc45)n[nH]c3n2)CC1` [Compound 493, 4-methyl-1-(3-(quinazolin-4-ylthio)-1H-pyrazolo[3,4-b]pyrazin-6-yl)piperidin-4-amine] returned an IC50 of less than 1 µM.

On to `COC(=O)CCc1ncccc1Nc1n[nH]c2nc(N3CCC(C)(N)CC3)cnc12` [Compound 495, methyl 3-[3-[[6-(4-amino-4-methyl-1-piperidyl)-1H-pyrazolo[3,4-b]pyrazin-3-yl]amino]-2-pyridyl]propanoate], for which the IC50 lay in the range of 1 to 10 µM.

`CC1(N)CCN(c2cnc3c(Sc4cccn5ccnc45)n[nH]c3n2)CC1` [Compound 496, 1-(3-(imidazo[1,2-a]pyridin-8-ylthio)-1H-pyrazolo[3,4-b]pyrazin-6-yl)-4-methylpiperidin-4-amine hydrochloride] yielded an IC50 of less than 1 µM.

`CNc1nccc(Sc2n[nH]c3nc(N4CCC(C)(N)CC4)cnc23)c1Cl` [Compound 497, 4-((6-(4-amino-4-methylpiperidin-1-yl)-1H-pyrazolo[3,4-b]pyrazin-3-yl)thio)-3-chloro-N-methylpyridin-2-amine hydrochloride] came in with an IC50 of less than 1 µM.

For `CC1(CN)CCN(c2cnc3c(Nc4ccnc(N)c4Cl)n[nH]c3n2)CC1` [Compound 498, N^4-(6-(4-(aminomethyl)-4-methylpiperidin-1-yl)-1H-pyrazolo[3,4-b]pyrazin-3-yl)-3-chloropyridine-2,4-diamine], the IC50 was less than 1 µM.

In turn, `CC1(CN)CCN(c2cnc3c(Nc4ccnc(Cl)c4Cl)n[nH]c3n2)C1` (stereo not drawn) [Compound 499, 6-(3-(Aminomethyl)-3-methylpyrrolidin-1-yl)-N-(2,3-dichloropyridin-4-yl)-1H-pyrazolo[3,4-b]pyrazin-3-amine] showed an IC50 of less than 1 µM.

`CC1(CN)CCN(c2cnc3c(Nc4ccnc(Cl)c4Cl)n[nH]c3n2)CC1` [Compound 500, 6-(4-(Aminomethyl)-4-methylpiperidin-1-yl)-N-(2,3-dichloropyridin-4-yl)-1H-pyrazolo[3,4-b]pyrazin-3-amine hydrochloride] registered an IC50 of less than 1 µM.

Take `Cn1nc(Oc2ccnc(Cl)c2Cl)c2ncc(N3CCC(C)(CN)CC3)nc21` [Compound 501, (1-(3-((2,3-dichloropyridin-4-yl)oxy)-1-methyl-1H-pyrazolo[3,4-b]pyrazin-6-yl)-4-methylpiperidin-4-yl)methanamine]: the IC50 was not below 10 µM.

The compound `CC1(N)CCN(c2cnc3c(Oc4ncccc4Cl)n[nH]c3n2)CC1` [Compound 502, 1-(3-((3-chloropyridin-2-yl)oxy)-1H-pyrazolo[3,4-b]pyrazin-6-yl)-4-methylpiperidin-4-amine dihydrochloride] yielded an IC50 of less than 1 µM.

On to `Cc1nccc(Oc2n[nH]c3nc(N4CCC(C)(CN)CC4)cnc23)c1Cl` [Compound 504, (1-(3-((3-chloro-2-methylpyridin-4-yl)oxy)-1H-pyrazolo[3,4-b]pyrazin-6-yl)-4-methylpiperidin-4-yl)methanamine], for which the IC50 was less than 1 µM.

`CC1(CN)CCN(c2cnc3c(Oc4ccc5[nH]ccc5c4)n[nH]c3n2)CC1` [Compound 505, (1-(3-((1H-indol-5-yl)oxy)-1H-pyrazolo[3,4-b]pyrazin-6-yl)-4-methylpiperidin-4-yl)methanamine] showed an IC50 of 1 to 10 µM.

On to `Cn1cc(-c2nccc(Oc3n[nH]c4nc(N5CCC(C)(CN)CC5)cnc34)c2Cl)cn1` [Compound 506, (1-(3-((3-chloro-2-(1-methyl-1H-pyrazol-4-yl)pyridin-4-yl)oxy)-1H-pyrazolo[3,4-b]pyrazin-6-yl)-4-methylpiperidin-4-yl)methanamine], for which the 50% inhibitory concentration (IC50) was less than 1 µM.

`CC1(N)CCN(c2cnc3c(Oc4cnccc4N)n[nH]c3n2)CC1` [Compound 507, 3-((6-(4-Amino-4-methylpiperidin-1-yl)-1H-pyrazolo[3,4-b]pyrazin-3-yl)oxy)pyridin-4-amine hydrochloride] registered an IC50 not below 10 µM.

`CC1(N)CCN(c2cnc3c(Oc4cccnc4N)n[nH]c3n2)CC1` [Compound 508, 3-((6-(4-Amino-4-methylpiperidin-1-yl)-1H-pyrazolo[3,4-b]pyrazin-3-yl)oxy)pyridin-2-amine hydrochloride] displayed an IC50 of 1 to 10 µM.

For the compound `CC1(N)CCN(c2cnc3c(Oc4cnccc4Cl)n[nH]c3n2)CC1` [Compound 509, 1-(3-((4-Chloropyridin-3-yl)oxy)-1H-pyrazolo[3,4-b]pyrazin-6-yl)-4-methylpiperidin-4-amine hydrochloride], the IC50 lay in the range of 1 to 10 µM.

`CC1(N)CCN(c2cnc3c(Oc4cccnc4Cl)n[nH]c3n2)CC1` [Compound 510, 1-(3-((2-chloropyridin-3-yl)oxy)-1H-pyrazolo[3,4-b]pyrazin-6-yl)-4-methylpiperidin-4-amine] registered an IC50 of less than 1 µM.

`Cn1ccc(Sc2n[nH]c3nc(N4CCC(C)(CN)CC4)cnc23)cc1=O` [Compound 511, 4-((6-(4-(aminomethyl)-4-methylpiperidin-1-yl)-1H-pyrazolo[3,4-b]pyrazin-3-yl)thio)-1-methylpyridin-2(1H)-one] came in with an IC50 of less than 1 µM.

In turn, `C[C@@H]1OCC2(CCN(c3cnc4c(Oc5ccnc(Cl)c5Cl)n[nH]c4n3)CC2)[C@@H]1N` [Compound 512, (3S,4S)-8-(3-((2,3-dichloropyridin-4-yl)oxy)-1H-pyrazolo[3,4-b]pyrazin-6-yl)-3-methyl-2-oxa-8-azaspiro[4.5]decan-4-amine] had an IC50 of less than 1 µM.

`CC1(CN)CCN(c2cnc3c(Sc4ccn5nccc5c4)n[nH]c3n2)CC1` [Compound 513, (4-methyl-1-(3-(pyrazolo[1,5-a]pyridin-5-ylthio)-1H-pyrazolo[3,4-b]pyrazin-6-yl)piperidin-4-yl)methanamine]: the IC50 was less than 1 µM.

As to `CC1(CN)CCN(c2cnc3c(Sc4ccnc5[nH]ccc45)n[nH]c3n2)CC1` [Compound 515, (1-(3-((1H-pyrrolo[2,3-b]pyridin-4-yl)thio)-1H-pyrazolo[3,4-b]pyrazin-6-yl)-4-methylpiperidin-4-yl)methanamine], the IC50 was less than 1 µM.

Consider `CC1(CN)CCN(c2cnc3c(Sc4ccc5cccnc5c4Cl)n[nH]c3n2)CC1` [Compound 516, (1-(3-((8-chloroquinolin-7-yl)thio)-1H-pyrazolo[3,4-b]pyrazin-6-yl)-4-methylpiperidin-4-yl)methanamine], for which the IC50 was less than 1 µM.

Turning to `Cc1nccc(Oc2n[nH]c3nc(N4CCC5(CC4)CO[C@@H](C)[C@H]5N)cnc23)c1Cl` [Compound 517, (3S,4S)-8-(3-((3-chloro-2-methylpyridin-4-yl)oxy)-1H-pyrazolo[3,4-b]pyrazin-6-yl)-3-methyl-2-oxa-8-azaspiro[4.5]decan-4-amine], the IC50 was less than 1 µM.

`CC1(CN)CCN(c2cnc3c(Oc4cc(N)nc(Cl)c4Cl)n[nH]c3n2)CC1` [Compound 518, 4-((6-(4-(aminomethyl)-4-methylpiperidin-1-yl)-1H-pyrazolo[3,4-b]pyrazin-3-yl)oxy)-5,6-dichloropyridin-2-amine hydrochloride]: the IC50 was less than 1 µM.

As for `C[C@@H]1OCC2(CCN(c3cnc4c(N5CCCc6c5ccc(C#N)c6[C@@H]5CC(=O)N(C)C5)n[nH]c4n3)CC2)[C@@H]1N` [Compound 519], the IC50 is less than 1 µM.

`C[C@@H]1OCC2(CCN(c3cnc4c(N5CCCc6c([C@H]7CC(=O)N(C)C7)cccc65)n[nH]c4n3)CC2)[C@@H]1N` [Compound 521] displayed an IC50 of less than 1 µM.

On to `C[C@@H]1OCC2(CCN(c3cnc4c(N5CCCc6c5ccc(C#N)c6[C@@H]5CCCO5)n[nH]c4n3)CC2)[C@@H]1N` [Compound 522], for which the IC50 was less than 1 µM.

For orientation: IC50 means the point on the concentration scale where inhibition reaches its midpoint.
